Reference: PubChem BioAssay AID2060500 (Molecular Pharmacology Branch, DTP, NCI, 2025)
pIC50: −log10 of the molar value.

System: 596521-263-R-J1-PDC complex spheroids, viability % of control
Assay: Anticancer human tumor 596521-263-R-J1-PDC patient-derived soft tissue sarcoma cell line growth inhibition [GQUAD]
Details: for pIC50: curve of first compound; for viability, T/C: stronger effect = lower value
In short: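 Tumor cells were grown as complex spheroids with HUVEC endothelial cells and mesenchymal stem cells as stroma. G-quadruplex stabilizers were combined with targeted agents over half-log dilutions from near the clinical Cmax, or from 10 microM.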

[1] = second compound 0.0316 µM, first compound 0.0316 µM
[2] = second compound 0.0316 µM, first compound 0.1 µM
[3] = second compound 0.0316 µM, first compound 0.316 µM
[4] = second compound 0.0316 µM, first compound 1 µM
[5] = second compound 0.0316 µM, first compound 3.16 µM
[6] = second compound 0.0316 µM, first compound 10 µM
[7] = second compound 0.1 µM, first compound 0.0316 µM
[8] = second compound 0.1 µM, first compound 0.1 µM
[9] = second compound 0.1 µM, first compound 0.316 µM
[10] = second compound 0.1 µM, first compound 1 µM
[11] = second compound 0.1 µM, first compound 3.16 µM
[12] = second compound 0.1 µM, first compound 10 µM
[13] = second compound 0.316 µM, first compound 0.0316 µM
[14] = second compound 0.316 µM, first compound 0.1 µM
[15] = second compound 0.316 µM, first compound 0.316 µM
[16] = second compound 0.316 µM, first compound 1 µM
[17] = second compound 0.316 µM, first compound 3.16 µM
[18] = second compound 0.316 µM, first compound 10 µM
[19] = second compound 1 µM, first compound 0.0316 µM
[20] = second compound 1 µM, first compound 0.1 µM
[21] = second compound 1 µM, first compound 0.316 µM
[22] = second compound 1 µM, first compound 1 µM
[23] = second compound 1 µM, first compound 3.16 µM
[24] = second compound 1 µM, first compound 10 µM
[25] = second compound 3.16 µM, first compound 0.0316 µM
[26] = second compound 3.16 µM, first compound 0.1 µM
[27] = second compound 3.16 µM, first compound 0.316 µM
[28] = second compound 3.16 µM, first compound 1 µM
[29] = second compound 3.16 µM, first compound 3.16 µM
[30] = second compound 3.16 µM, first compound 10 µM
[31] = second compound 10 µM, first compound 0.0316 µM
[32] = second compound 10 µM, first compound 0.1 µM
[33] = second compound 10 µM, first compound 0.316 µM
[34] = second compound 10 µM, first compound 1 µM
[35] = second compound 10 µM, first compound 3.16 µM
[36] = second compound 10 µM, first compound 10 µM
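Also: spheroids exposed to drugs for 7 days before viability reading.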
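For viability, T/C in this document: 100% = DMSO vehicle control viability.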

CC(C)(O)C1CCC(Nc2ccc3ncc(-c4cccc(C(F)(F)F)c4)n3n2)CC1 (stereo unspecified) + Cc1[nH]c2ccc(F)cc2c1-c1nc2c3cccnc3c3ncccc3c2[nH]1
pIC50 (second compound 0.0316 µM): < 5.00
pIC50 (second compound 0.1 µM): < 5.00
pIC50 (second compound 0.316 µM): < 5.00
pIC50 (second compound 1 µM): < 5.00
pIC50 (second compound 3.16 µM): < 5.00
pIC50 (second compound 10 µM): < 5.00
viability, T/C [1]: 98.3%
viability, T/C [2]: 96.8%
viability, T/C [3]: 97.9%
viability, T/C [4]: 101%
viability, T/C [5]: 102%
viability, T/C [6]: 87.2%
viability, T/C [7]: 120%
viability, T/C [8]: 92.5%
viability, T/C [9]: 92.3%
viability, T/C [10]: 100%
viability, T/C [11]: 96.4%
viability, T/C [12]: 81.7%
viability, T/C [13]: 98.5%
viability, T/C [14]: 90.6%
viability, T/C [15]: 103%
viability, T/C [16]: 92.3%
viability, T/C [17]: 103%
viability, T/C [18]: 82.9%
viability, T/C [19]: 90.7%
viability, T/C [20]: 88.5%
viability, T/C [21]: 98.5%
viability, T/C [22]: 101%
viability, T/C [23]: 106%
viability, T/C [24]: 79.5%
viability, T/C [25]: 89.3%
viability, T/C [26]: 96.5%
viability, T/C [27]: 94.1%
viability, T/C [28]: 83.2%
viability, T/C [29]: 95.2%
viability, T/C [30]: 80.6%
viability, T/C [31]: 77.7%
viability, T/C [32]: 92%
viability, T/C [33]: 91%
viability, T/C [34]: 86.4%
viability, T/C [35]: 84.9%
viability, T/C [36]: 68.6%

CC1COCCN1c1cc(C2(S(C)(=N)=O)CC2)nc(-c2ccnc3[nH]ccc23)n1 (stereo unspecified) + CN(C)c1ccc(Nc2c3ccc(NC(=O)CCN4CCCC4)cc3nc3cc(NC(=O)CCN4CCCC4)ccc23)cc1
pIC50 (second compound 0.0316 µM): < 5.00
pIC50 (second compound 0.1 µM): 5.02
pIC50 (second compound 0.316 µM): < 5.00
pIC50 (second compound 1 µM): < 5.00
pIC50 (second compound 3.16 µM): < 5.00
pIC50 (second compound 10 µM): 5.36
viability, T/C [1]: 93.1%
viability, T/C [2]: 97.1%
viability, T/C [3]: 86.9%
viability, T/C [4]: 77.9%
viability, T/C [5]: 62.9%
viability, T/C [6]: 52.3%
viability, T/C [7]: 97.5%
viability, T/C [8]: 97.7%
viability, T/C [9]: 95.1%
viability, T/C [10]: 71.5%
viability, T/C [11]: 64.8%
viability, T/C [12]: 48%
viability, T/C [13]: 96.6%
viability, T/C [14]: 90.8%
viability, T/C [15]: 87.3%
viability, T/C [16]: 85.1%
viability, T/C [17]: 54.2%
viability, T/C [18]: 51.2%
viability, T/C [19]: 90.4%
viability, T/C [20]: 103%
viability, T/C [21]: 94.1%
viability, T/C [22]: 76.4%
viability, T/C [23]: 64.3%
viability, T/C [24]: 57.3%
viability, T/C [25]: 94.5%
viability, T/C [26]: 83.1%
viability, T/C [27]: 78.2%
viability, T/C [28]: 80%
viability, T/C [29]: 61.4%
viability, T/C [30]: 50%
viability, T/C [31]: 66.8%
viability, T/C [32]: 67.1%
viability, T/C [33]: 65.6%
viability, T/C [34]: 52.8%
viability, T/C [35]: 53.8%
viability, T/C [36]: 44.9%

COc1cc(C2c3cc4c(cc3C(OC3OC5COC(C)OC5C(O)C3O)C3COC(=O)C23)OCO4)cc(OC)c1O (stereo unspecified) + CN(C)c1ccc(Nc2c3ccc(NC(=O)CCN4CCCC4)cc3nc3cc(NC(=O)CCN4CCCC4)ccc23)cc1
pIC50 (second compound 0.0316 µM): 5.44
pIC50 (second compound 0.1 µM): 5.09
pIC50 (second compound 0.316 µM): < 5.00
pIC50 (second compound 1 µM): 5.56
pIC50 (second compound 3.16 µM): 5.51
pIC50 (second compound 10 µM): 5.37
viability, T/C [1]: 101%
viability, T/C [2]: 96.2%
viability, T/C [3]: 84.5%
viability, T/C [4]: 59.8%
viability, T/C [5]: 56.8%
viability, T/C [6]: 40.3%
viability, T/C [7]: 111%
viability, T/C [8]: 96.6%
viability, T/C [9]: 85%
viability, T/C [10]: 70.6%
viability, T/C [11]: 57.8%
viability, T/C [12]: 48.5%
viability, T/C [13]: 96.4%
viability, T/C [14]: 107%
viability, T/C [15]: 82.7%
viability, T/C [16]: 67.2%
viability, T/C [17]: 56.8%
viability, T/C [18]: 47.8%
viability, T/C [19]: 95.9%
viability, T/C [20]: 92.8%
viability, T/C [21]: 94.6%
viability, T/C [22]: 72.3%
viability, T/C [23]: 47%
viability, T/C [24]: 46.6%
viability, T/C [25]: 95.9%
viability, T/C [26]: 94.9%
viability, T/C [27]: 85%
viability, T/C [28]: 63.9%
viability, T/C [29]: 49.7%
viability, T/C [30]: 46.6%
viability, T/C [31]: 68%
viability, T/C [32]: 63.6%
viability, T/C [33]: 67.1%
viability, T/C [34]: 55.5%
viability, T/C [35]: 54%
viability, T/C [36]: 42.9%
